Counter-ions that a name gives are not always drawn. ± gives the standard deviation of the averaged measurements.
Tested on: SK-ES-1
Test: relative viability vs DMSO control (72 h) (fraction); higher = more viable cells
In short: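 Sarcoma cell lines were grown in 384-well plates seeded toward 80–90% confluence and exposed 24 h later to serially diluted compound. After 72 h at 37 °C and 5% CO2, with 0.1% DMSO vehicle and a 5 µM positive control on the plates, ATPLite was read. Relative viability, given as percent growth averaged over up to triplicate wells, was rescaled so that 1 is full and 0 is none.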

Structure (SMILES) | relative viability (0.00017 µM) | relative viability (0.00051 µM) | relative viability (0.00152 µM) | relative viability (0.00457 µM) | relative viability (0.01372 µM) | relative viability (0.04115 µM) | relative viability (0.1235 µM) | relative viability (0.3704 µM) | relative viability (1.111 µM) | relative viability (3.333 µM) | relative viability (10 µM)
Cc1cc(C)c(/C=C2\C(=O)Nc3ccccc32)[nH]1 [Semaxanib] | 0.972 ± 0.06 | 1.01 ± 0.056 | 0.954 ± 0.028 | 1 ± 0.056 | 0.967 ± 0.055 | 0.999 ± 0.018 | 1 ± 0.027 | 0.986 ± 0.09 | 0.925 ± 0.042 | 0.934 ± 0.052 | 0.765 ± 0.068
CC1(C)CNc2cc(NC(=O)c3cccnc3NCc3ccncc3)ccc21 [Motesanib] | 0.942 ± 0.053 | 0.899 ± 0.059 | 0.952 ± 0.013 | 0.891 ± 0.017 | 0.9075 ± 0.0058 | 0.938 ± 0.056 | 0.974 ± 0.051 | 0.913 ± 0.043 | 0.954 ± 0.044 | 0.924 ± 0.053 | 0.753 ± 0.038
CNC(=O)c1ccc(-c2cnc3ncc(Cc4ccc5ncccc5c4)n3n2)cc1F [Capmatinib] | 1.06 ± 0.011 | 1.05 ± 0.022 | 1.11 ± 0.023 | 1.08 ± 0.04 | 1.06 ± 0.021 | 1.09 ± 0.015 | 1.09 ± 0.048 | 1.08 ± 0.049 | 1.12 ± 0.03 | 1.08 ± 0.026 | 1.07 ± 0.026
CC(C)N1CCN(Cc2cnc(-c3cc(-c4cccc5[nH]ccc45)cc4[nH]ncc34)o2)CC1 [Nemiralisib] | 0.934 ± 0.039 | 0.915 ± 0.03 | 0.945 ± 0.034 | 0.932 ± 0.035 | 0.985 ± 0.068 | 0.957 ± 0.041 | 0.977 ± 0.026 | 0.961 ± 0.055 | 0.931 ± 0.04 | 0.76 ± 0.027 | 0.114 ± 0.053
CO[C@H]1C[C@@H]2CC[C@@H](C)[C@@](O)(O2)C(=O)C(=O)N2CCCC[C@H]2C(=O)O[C@H]([C@H](C)C[C@@H]2CC[C@@H](OP(C)(C)=O)[C@H](OC)C2)CC(=O)[C@H](C)/C=C(\C)[C@@H](O)[C@@H](OC)C(=O)[C@H](C)C[C@H](C)/C=C/C=C/C=C/1C [Ridaforolimus] | 1.03 ± 0.059 | 1.04 ± 0.033 | 0.978 ± 0.051 | 0.806 ± 0.055 | 0.675 ± 0.037 | 0.643 ± 0.037 | 0.601 ± 0.014 | 0.555 ± 0.026 | 0.56 ± 0.0043 | 0.545 ± 0.029 | 0.52 ± 0.011
Nc1cc(C(F)(F)F)c(-c2cc(N3CCOCC3)nc(N3CCOCC3)n2)cn1 [Buparlisib] | 1.03 ± 0.025 | 1 ± 0.052 | 1.02 ± 0.037 | 1.04 ± 0.035 | 1.03 ± 0.029 | 1.04 ± 0.019 | 0.93 ± 0.033 | 0.749 ± 0.035 | 0.157 ± 0.014 | 0.041 ± 0.00093 | 0.0484 ± 0.0029
Cc1ccc(F)c(NC(=O)Nc2ccc(-c3cccc4[nH]nc(N)c34)cc2)c1 [Linifanib] | 1.07 ± 0.098 | 1.07 ± 0.044 | 1.08 ± 0.043 | 1.11 ± 0.025 | 1.09 ± 0.052 | 1.04 ± 0.028 | 1.04 ± 0.038 | 1.05 ± 0.039 | 1.01 ± 0.032 | 0.879 ± 0.17 | 1.03 ± 0.034
N#CC[C@H](C1CCCC1)n1cc(-c2ncnc3[nH]ccc23)cn1 [Ruxolitinib] | 0.926 ± 0.028 | 0.974 ± 0.027 | 0.96 ± 0.038 | 0.9617 ± 0.0031 | 0.942 ± 0.039 | 0.95 ± 0.049 | 0.933 ± 0.024 | 0.959 ± 0.044 | 0.932 ± 0.025 | 0.897 ± 0.05 | 0.812 ± 0.04
C=CC(=O)Nc1cccc(Oc2nc(Nc3ccc(N4CCN(C)CC4)cc3)nc3ccsc23)c1 [Olmutinib] | 0.979 ± 0.049 | 1.029 ± 0.0089 | 0.999 ± 0.047 | 1.03 ± 0.028 | 1.03 ± 0.036 | 1.018 ± 0.0064 | 1.05 ± 0.022 | 1.05 ± 0.051 | 0.996 ± 0.059 | 0.921 ± 0.011 | 0.339 ± 0.041
CCCS(=O)(=O)Nc1ccc(F)c(C(=O)c2c[nH]c3ncc(-c4ccc(Cl)cc4)cc23)c1F [Vemurafenib] | 1.02 ± 0.061 | 1.06 ± 0.043 | 1.08 ± 0.016 | 1.09 ± 0.022 | 1.06 ± 0.043 | 1.03 ± 0.045 | 1.05 ± 0.025 | 1.1 ± 0.011 | 1.04 ± 0.06 | 0.891 ± 0.078 | 0.534 ± 0.16
Cc1ccc(NC(=O)c2ccc(CN3CCN(C)CC3)cc2)cc1Nc1nc(-c2cccnc2)cs1 [Masitinib] | 1 ± 0.018 | 0.9842 ± 0.008 | 0.999 ± 0.032 | 1.06 ± 0.013 | 0.981 ± 0.033 | 1.01 ± 0.017 | 1 ± 0.042 | 0.93 ± 0.05 | 0.817 ± 0.039 | 0.5209 ± 0.0016 | 0.138 ± 0.012
Cc1cnc(Nc2ccc(OCCN3CCCC3)cc2)nc1Nc1cccc(S(=O)(=O)NC(C)(C)C)c1 [Fedratinib] | 0.99 ± 0.063 | 1.03 ± 0.045 | 1.047 ± 0.01 | 1.06 ± 0.028 | 1.04 ± 0.016 | 1.03 ± 0.023 | 0.859 ± 0.067 | 0.489 ± 0.014 | 0.123 ± 0.01 | 0.0173 ± 0.002 | 0.0056 ± 0.00035
C[C@@H](c1ccc2nccn2c1)n1nnc2ncc(-c3cnn(C)c3)nc21 [Volitinib] | 1.02 ± 0.025 | 1.01 ± 0.06 | 1.05 ± 0.031 | 1.07 ± 0.021 | 1.05 ± 0.047 | 1.04 ± 0.033 | 1.04 ± 0.051 | 1.03 ± 0.036 | 1.05 ± 0.1 | 1.05 ± 0.058 | 1.01 ± 0.083
COc1cccc2c1C(=O)c1c(O)c3c(c(O)c1C2=O)C[C@@](O)(C(=O)CO)C[C@@H]3O[C@H]1C[C@H](N)[C@H](O)[C@H](C)O1 [Doxorubicin Hydrochloride] | 0.999 ± 0.033 | 1.05 ± 0.074 | 1 ± 0.057 | 0.991 ± 0.085 | 0.604 ± 0.065 | 0.307 ± 0.025 | 0.123 ± 0.014 | 0.0254 ± 0.0066 | 0.000533 ± 0.00072 | -0.000167 ± 0.00091 | 0.00357 ± 0.00093
CCN1CCN(Cc2ccc(Nc3ncc(F)c(-c4cc(F)c5nc(C)n(C(C)C)c5c4)n3)nc2)CC1 [Abemaciclib] | 1.03 ± 0.032 | 1.04 ± 0.027 | 0.995 ± 0.031 | 1 ± 0.052 | 0.922 ± 0.055 | 0.728 ± 0.018 | 0.481 ± 0.035 | 0.413 ± 0.012 | 0.38 ± 0.0066 | 0.346 ± 0.01 | 0.00807 ± 0.00042
C=CC(=O)N1CCC([C@@H]2CCNc3c(C(N)=O)c(-c4ccc(Oc5ccccc5)cc4)nn32)CC1 [Zanubrutinib] | 0.906 ± 0.065 | 0.938 ± 0.088 | 0.994 ± 0.05 | 0.984 ± 0.083 | 0.949 ± 0.043 | 0.953 ± 0.029 | 0.934 ± 0.041 | 0.953 ± 0.057 | 0.894 ± 0.069 | 0.903 ± 0.031 | 0.845 ± 0.038
COc1cc2/c(=N/c3ccc(Br)cc3F)nc[nH]c2cc1OCC1CCN(C)CC1 [Vandetanib] | 1 ± 0.03 | 0.992 ± 0.024 | 1.02 ± 0.037 | 1.033 ± 0.0099 | 1.06 ± 0.035 | 0.989 ± 0.051 | 1.008 ± 0.0093 | 0.917 ± 0.033 | 0.762 ± 0.032 | 0.389 ± 0.0099 | 0.0169 ± 0.0022
C[C@@H]1COCCN1c1cc(-c2ccnn2C)c2ccnc(-c3ccn[nH]3)c2n1 | 1.03 ± 0.031 | 1.05 ± 0.03 | 1.03 ± 0.052 | 1.09 ± 0.055 | 1.05 ± 0.039 | 0.856 ± 0.024 | 0.562 ± 0.037 | 0.285 ± 0.0067 | 0.156 ± 0.0046 | 0.101 ± 0.0046 | 0.112 ± 0.0035
C[C@]1(O)C[C@@H](c2nc(-c3ccc4ccc(-c5ccccc5)nc4c3)c3c(N)nccn32)C1 [Linsitinib] | 1.05 ± 0.039 | 1.05 ± 0.034 | 1.08 ± 0.019 | 1.07 ± 0.051 | 1.03 ± 0.067 | 0.967 ± 0.038 | 0.75 ± 0.026 | 0.479 ± 0.042 | 0.341 ± 0.013 | 0.308 ± 0.013 | 0.21 ± 0.0051

Source: the supplement of paper PMC10883282
